# From publication PMC9196629, “Synthesis, Characterization and Antitumor Mechanism Investigation of Heterometallic Ru(Ⅱ)-Re(Ⅰ) Complexes” (Frontiers in Chemistry, 2022)
# “And” between values parts separate entries of the source, which are not always exact repeats. Equal values may be shown once.
# Columns and labels:
# [1] = Stability in PBS by UV-Vis spectroscopy; type: physicochemical; conditions: 10 μM, PBS, 0, 24 and 48 h
# Method: The stabilities of RuRe-1 and RuRe-2 in PBS and human serum albumin (HSA) were tested through UV–Vis spectroscopy.
# Supplementary Figure 12. UV-Vis absorption spectra of RuRe-1 (10 μM), RuRe-2 (10 μM), Ru-1 (10 μM), Ru-2 (10 μM) and Re-1 (10 μM) in PBS (A) and HSA (B) solution collected at 0, 24, and 48 h, respectively.
# HeLa cells [2] = test: Hoechst 33342 staining of nuclear morphology; type: cell-based, human; conditions: 24 h
# Method: First, changes in cell morphology of HeLa cells induced by RuRe-1 and RuRe-2 were examined with 2'-(4-ethoxyphenyl)-5-(4-methyl-1-piperazinyl)-2,5′-bi-1H-benzimidazole trihydrochloride (Hoechst 33342) staining. Hoechst 33342 is a blue fluorescent dye that can penetrate cell membranes and is commonly used to stain cell nuclei ([Tian et al., 2018]).
# FIGURE 2 RuRe-1 and RuRe-2 induced HeLa cells apoptosis measured by confocal microscopy with Hoechst 33342 staining (λ ex = 405 nm, λ em = 460 ± 20 nm). The incubation time of the compounds was 24 h. Arrows indicate apoptotic morphological nuclei. Scale bar: 20 μm.
# Hoechst 33342 staining assay. After HeLa cells were adhered to the confocal dishes, the medium was replaced with a medium containing the indicated concentrations of RuRe-1 and RuRe-2. After incubation for 24 h, the medium was aspirated and the cells were washed three times with PBS, then fixed with 4% paraformaldehyde. Subsequently, cells were labelled 10 mins with Hoechst 33342 (5 μg/mL) and observed immediately under confocal microscope (λex = 405 nm, λem = 460 ± 20 nm).
# PARP = test: Western blot of apoptosis-related proteins; type: cell-based, human; conditions: HeLa, different concentrations, 24 h
# Method: (§1) Cysteine aspartate proteases play an important role in apoptosis, especially caspase-3 protein, which is one of the most important execution factors in the apoptotic pathway ([Wang X. et al., 2021]). The poly(ADP-ribose) polymerase (PARP) is associated with DNA repair and guardianship of genetic integrity ([Pandey and Black, 2021]). After treating HeLa cells with different concentrations of RuRe-1 or RuRe-2 for 24 h, the expression of caspase-3 and the caspase substrate PARP apoptotic protein were detected by western blot. […] It was further shown that RuRe-1 and RuRe-2 are activators of caspase-3, which can trigger apoptosis in HeLa cells.
# (§2) FIGURE 4 Expression of apoptosis-related protein (caspase-3 and PARP) in HeLa cells treated with RuRe-1 and RuRe-2 for 24 h.
# (§3) Western blot analysis. HeLa cells were plated into the 6-well plates, after treating with different doses of RuRe-1 and RuRe-2 for 24 h, the cells were collected and lysed. The protein concentration was determined using the BCA assay kit. Equal amounts of protein were ran on SDS-PAGE and then transferred to the PVDF membrane.
# caspase-3 = test: Western blot of apoptosis-related proteins; type: cell-based, human; conditions: HeLa, different concentrations, 24 h
# Method: as §1, §2, §3
# HeLa cells [3] = test: Cell cycle analysis by flow cytometry with PI staining; type: cell-based, human; conditions: 24 h; for S cell cycle population: control 14.4 ± 0.9; for G2/M cell cycle population: control 21.4 ± 0.7; for G0/G1 cell cycle population: control 64.2 ± 1.3
# Source text: Cell cycle arrest studies provide a good understanding of cell apoptosis induced by metal drugs ([Sadoughi et al., 2021]). To further clarify the mechanism of apoptosis induced by RuRe-1 and RuRe-2, we analyzed the cell cycle of HeLa cells treated with RuRe-1 and RuRe-2 by flow cytometry with PI staining. […] A corresponding decrease in cell content in G1 and G2 phases was observed.
# Cell cycle analysis. After HeLa cells were adhered to the 6-well plates, the medium was replaced with medium containing different concentrations of RuRe-1 and RuRe-2 for 24 h. Cells were collected and fixed for 24 h with pre-cooled 70% ethanol, then washed twice with PBS and finally stained with PI staining solution in a warm bath at 37 °C for 30 mins. The samples were detected by flow cytometry.
# HeLa cells [4] = test: Mitochondrial membrane potential (MMP) by Rh123 staining; type: cell-based, human; conditions: 6 h, confocal microscopy
# Source text: Apoptosis is associated with a decrease in MMP ([Wu et al., 2022]), so we investigated the effects of RuRe-1 and RuRe-2 on MMP. A decrease in fluorescence intensity of rhodamine 123 (Rh123) can indicate the loss of MMP ([Ma et al., 2019]). […] The decline of MMP further confirmed that RuRe-1 and RuRe-2 could influence mitochondrial function and promote apoptosis.
# FIGURE 6 RuRe-1 and RuRe-2 induced the loss of MMP analyzed by confocal microscopy with Rh123 staining (λ ex = 488 nm, λ em = 530 ± 20 nm). The incubation time of the compounds was 6 h. Scale bar: 20 μm.
# Measurement of MMP. After HeLa cells were adhered to the confocal dishes, the medium was replaced with medium containing the indicated concentrations of RuRe-1 and RuRe-2 for 6 h. Subsequently, the medium was aspirated and the cells were washed three times with PBS, then stained with Rh123 (1 μg/mL) for 30 mins. After washing with PBS twice, cells were observed under a confocal microscopy (λex = 488 nm, λem = 530 ± 20 nm).
# HeLa cells [5] = test: Wound healing assay (cell migration); type: cell-based, human; conditions: 36 h, control 15%
# Method: Metastasis is a major obstacle to cancer treatment, which will cause the failure of cancer treatment and the death of patients ([Fouani et al., 2017]). Cell migration is the main feature of metastasis. Herein, the effects of RuRe-1 and RuRe-2 on inhibiting cell migration were studied through wound healing. […] After 36 h cultivated, both RuRe-1 and RuRe-2 inhibited cell migration, and the wound closure rates were 3% and 2%, respectively, which were lower than 15% of the control group (Figure 8B).
# FIGURE 8 (A) Wound healing of HeLa cells after treated with RuRe-1 (3.1 μM) and RuRe-2 (2.5 μM) for 0, 24, and 36 h. (B) Quantitative data of wound-healing. Wound closure (%) = [1−(width at indicated time)/(width at 0 h)] × 100%. (C) Inhibition of colony formation by RuRe-1 and RuRe-2. (D) Quantitative data of colony formation assays.
# Wound healing assay. When reaching 80%–90% confluence, the cells were crossed with a 200 μL pipette tip, then photographed under an inverted microscope to record the width of the scratch. After the cells recovered for 1 h, the serum-free medium containing the indicated concentrations of RuRe-1 and RuRe-2 were added and incubated for a specific time (24 h, 36 h), meantime, the width of the scratch was recorded.
structure (smiles),measurement,setting,value
"F[P-](F)(F)(F)(F)F.F[P-](F)(F)(F)(F)F.F[P-](F)(F)(F)(F)F.[C-]#[O+].[C-]#[O+].[C-]#[O+].[Re+].[Ru+2].c1ccc(-c2ccnc3c2ccc2c(-c4ccccc4)ccnc23)cc1.c1cnc2c(c1)c1nc(-c3ccncc3)[nH]c1c1cccnc12.c1cnc2c(c1)ccc1cccnc12.c1cnc2c(c1)ccc1cccnc12 [RuRe-2, [Ru(phen)2LRe(CO)3(DIP)](PF6)3]",stability in PBS (UV-Vis spectral characteristics and absorption peaks),[1],no significant change
same,nuclear morphology (Hoechst 33342),HeLa cells [2],typical apoptotic characteristics
same,cleavage of PARP (western blot),PARP,induced the cleavage
same,cleavage of caspase-3 (western blot),caspase-3,induced the cleavage
same,S cell cycle population,HeLa cells [3]; 5.0 μM,16.8 ± 1.6%
same,G2/M cell cycle population,HeLa cells [3]; 5.0 μM,17.9 ± 1.4%
same,G0/G1 cell cycle population,HeLa cells [3]; 5.0 μM,65.3 ± 0.9%
same,S cell cycle population,HeLa cells [3]; 7.5 μM,39.9 ± 1.5%
same,G2/M cell cycle population,HeLa cells [3]; 7.5 μM,7.4 ± 0.5%
same,G0/G1 cell cycle population,HeLa cells [3]; 7.5 μM,52.7 ± 1.3%
same,S cell cycle population,HeLa cells [3]; 10.0 μM,40.0% and 40.0 ± 0.6%
same,G2/M cell cycle population,HeLa cells [3]; 10.0 μM,7.6 ± 0.2%
same,G0/G1 cell cycle population,HeLa cells [3]; 10.0 μM,52.4 ± 1.0%
same,MMP (green fluorescence intensity of Rh123),HeLa cells [4],decrease in the green fluorescence intensity of Rh123 in a dose-dependent manner
same,wound closure rate,HeLa cells [5]; 2.5 μM,2%
"F[P-](F)(F)(F)(F)F.F[P-](F)(F)(F)(F)F.F[P-](F)(F)(F)(F)F.[C-]#[O+].[C-]#[O+].[C-]#[O+].[Re+].[Ru+2].c1ccc(-c2ccccn2)nc1.c1ccc(-c2ccccn2)nc1.c1ccc(-c2ccnc3c2ccc2c(-c4ccccc4)ccnc23)cc1.c1cnc2c(c1)c1nc(-c3ccncc3)[nH]c1c1cccnc12 [RuRe-1, [Ru(bpy)2LRe(CO)3(DIP)](PF6)3]",stability in PBS (UV-Vis spectral characteristics and absorption peaks),[1],no significant change
same,nuclear morphology (Hoechst 33342),HeLa cells [2],typical apoptotic characteristics
same,cleavage of PARP (western blot),PARP,induced the cleavage
same,cleavage of caspase-3 (western blot),caspase-3,induced the cleavage
same,S cell cycle population,HeLa cells [3]; 6.2 μM,12.5 ± 0.2%
same,G2/M cell cycle population,HeLa cells [3]; 6.2 μM,18.7 ± 1.3%
same,G0/G1 cell cycle population,HeLa cells [3]; 6.2 μM,68.8 ± 0.5%
same,S cell cycle population,HeLa cells [3]; 9.3 μM,27.4 ± 0.9%
same,G2/M cell cycle population,HeLa cells [3]; 9.3 μM,16.1 ± 1.1%
same,G0/G1 cell cycle population,HeLa cells [3]; 9.3 μM,56.5 ± 1.1%
same,S cell cycle population,HeLa cells [3]; 12.4 μM,33.8% and 33.8 ± 1.2%
same,G2/M cell cycle population,HeLa cells [3]; 12.4 μM,14.5 ± 1.1%
same,G0/G1 cell cycle population,HeLa cells [3]; 12.4 μM,51.7 ± 0.9%
same,MMP (green fluorescence intensity of Rh123),HeLa cells [4],decrease in the green fluorescence intensity of Rh123 in a dose-dependent manner
same,wound closure rate,HeLa cells [5]; 3.1 μM,3%
